These results are taken from paper PMC6017415, “Carbamates as Potential Prodrugs and a New Warhead for HDAC Inhibition” (Molecules : A Journal of Synthetic Chemistry and Natural …, 2018).

The nature of data set [1]: Stability analysis under in vitro assay conditions, HPLC quantification of released hydroxamic acid. The data set is classed as physicochemical. Conditions: in vitro assay conditions without substrate, HDAC1 present, compound 2.4 mM, 90 min 37 °C. The method, then:
In order to address the question if the newly-synthesized carbamates are hydrolyzed during the assay procedure or if they really serve as HDAC inhibitors themselves, stability stress tests were performed. For this purpose, the compounds were subjected to the standard in vitro assay conditions, but without adding a substrate as, no enzyme conversion should be observed in these experiments. After 90 min of incubation at 37 °C, the release of SAHA of the different samples was detected and quantified via HPLC. This led to the finding that a release of SAHA could be detected for all samples (see Table 1). […] This means that the question if the carbamate scaffold represents a new warhead for HDAC inhibition or if the degradation to SAHA is solely responsible for the observed inhibitory effects cannot be resolved completely.
To test the stability of Compound 9 under assay conditions, we also performed stability analysis with HPLC quantification. This experiment led to the finding that 8.7% of the carbamate 9 is degraded under release of bufexamac during incubation time. This fraction of released bufexamac may contribute to in vitro and cellular HDAC inhibition, but the observed selectivity profile of the carbamate in the in vitro assays clearly implies an intrinsic HDAC activity of carbamates.
For stability tests, the carbamates were subjected to the described in vitro assay conditions (see above) without adding the substrate ZMAL and without the second incubation step with trypsin. Compounds were applied in a final concentration of 2.4 mM, and recombinant HDAC1 was used as the enzyme. After 90 min of incubation at 37 °C, the release of SAHA was detected via HPLC on an Agilent 1200 series device. The employed analytical column was a Kinetex 5u XB-C18, 100 Å, 250 × 4.6 mm (Phenomenex, Torrance, CA, USA) with the ReproSil 100 C18 5-µm precolumn (Jasco, Oklahoma City, OK, USA). The following conditions were applied: Eluent A: H2O containing 0.05% TFA, Eluent B: acetonitrile containing 0.05% TFA, linear gradient conditions (0–4 min, A = 90%, B = 10%; 4–29 min, linear increase to 100% of B; 29–31 min, B = 100%; 31.5–40 min, A = 10%, B = 90%); injection volume: 30 µL, flow rate: 1 mL/min; detection wavelength: λ = 254 nm. For evaluation, the ChemStation software from Agilent was used. To quantify the released amount of SAHA and bufexamac, calibration curves were plotted by incubating DMSO stocks of these compounds under in vitro assay conditions with final compound concentrations ranging from 1 µM–200 µM. HPLC analysis with the conditions described above led to the following equations: y = 13.935x − 27.918 for SAHA and y = 0.6099x + 1.1301 for bufexamac.

The next data set relates to U937 cells. The data set is described as follows: Cell proliferation assay (CellTiter 96 AQueous) in U937 cells. Conditions: Homo sapiens, U-937, 72 h, read-out: GI50 (µM) ± SE U937.
A further data set deals with T1, recombinant human HDAC1 (Homo sapiens, UniProt Q13547).
T1 construct: purchased BPS Biosciences (San Diego, CA, USA)
Briefly: HDAC1 in vitro fluorescence-based inhibition assay (ZMAL substrate). The class given is biochemical. As to conditions: recombinant human HDAC1, ZMAL 10.5 µM, 90 min 37 °C; for IC50: read-out: IC50 (µM) ± SE HDAC1. The text has this:
In order to investigate a potential subtype selectivity among different HDAC classes, we first tested them against the recombinant histone deacetylases HDAC1 (class I) and HDAC6 (class llb). […] To further address this issue, we also tested the respective compounds against the class l histone deacetylase HDAC8 (also see Table 1).
Recombinant human HDAC1 and 6 were purchased from BPS Biosciences (San Diego, CA, USA), and recombinant human HDAC8 was produced as described before. Inhibition tests of human HDAC1 and 6 were conducted using carboxybenzyl acetyllysine aminomethylcoumarin (ZMAL) as a substrate. […] For testing of HDAC8, the commercial Fluor de Lys drug discovery kit (BML-KI178) (Enzo Life Sciences, Lausen, Switzerland) was used according to the manufacturer’s instruction. Briefly, the test compound, Fluor de Lys-HDAC8 substrate (50 μM), and enzyme were incubated for 90 min at 37 °C with subsequent addition of 50 μL of Developer II (BML-KI176) (Enzo Life Sciences, Lausen, Switzerland) and further incubation for 45 min at 30 °C. In both assays, trichostatin A (2 μM) was used to stop the reaction. Fluorescence in both cases was measured in a plate reader (BMG Polarstar, BMG Labtech, Ortenberg, Germany) with excitation at λ = 390 nm and emission at λ = 460 nm.

The next data set relates to HL60 cells. Briefly: Cell proliferation assay (CellTiter 96 AQueous) in HL60 cells. Conditions: Homo sapiens, HL-60, 72 h, read-out: GI50 (µM) ± SE HL60.
Data set [2] relates to HDAC activity in U937 cells. The data set is described as follows: Cellular HDAC inhibition assay (MAL substrate) in U937 cells. As to conditions: Homo sapiens, U-937, read-out: IC50 (µM) ± SE cellular HDAC inhibition U937.
Experimental: Therefore, we decided to adapt this assay for a cellular setting allowing us to verify the previous results by assessing HDAC inhibition in the human leukemia cell lines HL60 and U937 (see the right side of Table 2).
After 2 h of incubation, 50 µL substrate solution were added, containing tert-butyloxycarbonyl acetyl lysine aminomethylcoumarin (MAL) as a substrate (300 µM final assay concentration) and IGEPAL CA-630 (final concentration 0.05%). After 2 more hours of incubation at 37 °C and 5% CO2, 50 µL stop solution consisting of 0.5 µL TSA (100 µM) and 5 µL trypsin solution (10 mg/mL) in 44.5 µL cell buffer were added. This mixture was incubated for a further 20 min at 37 °C. Fluorescence was measured in a plate reader (BMG Polarstar) with excitation at λ = 390 nm and emission at λ = 460 nm.

T1 sequence (Q13547 whole entry): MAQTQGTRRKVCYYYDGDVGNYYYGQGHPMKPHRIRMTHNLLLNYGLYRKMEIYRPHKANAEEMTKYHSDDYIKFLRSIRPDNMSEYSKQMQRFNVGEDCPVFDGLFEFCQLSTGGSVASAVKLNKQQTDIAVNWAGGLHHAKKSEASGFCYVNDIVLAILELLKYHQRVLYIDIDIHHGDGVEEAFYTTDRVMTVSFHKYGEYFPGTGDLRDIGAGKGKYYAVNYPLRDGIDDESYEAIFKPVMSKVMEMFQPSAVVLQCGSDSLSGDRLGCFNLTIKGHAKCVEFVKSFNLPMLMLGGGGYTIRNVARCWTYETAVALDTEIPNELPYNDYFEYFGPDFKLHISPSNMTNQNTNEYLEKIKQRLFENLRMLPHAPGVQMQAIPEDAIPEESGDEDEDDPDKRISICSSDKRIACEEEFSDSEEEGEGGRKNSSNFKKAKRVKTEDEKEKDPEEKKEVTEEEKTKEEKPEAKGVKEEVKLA
Experimental for HL60 cells: To further investigate the inhibition properties of the carbamates, we tested their antiproliferative activity on human promyelocytic leukemia cells (HL60) and on human histiocytic lymphoma cells (U937).
HL60 or U937 cells were seeded in 96-well tissue culture plates at a density of 5 × 10^4 cells per well. Cells were immediately incubated with inhibitors. As these cells already differentiate with 1% DMSO content, inhibitors were prepared as 200× stock solutions in DMSO. In all cases, inhibitors were compared to DMSO vehicle only, and three replicates per concentration were used. Growth inhibition was determined using the CellTiter 96® AQueous Non-Radioactive Cell Proliferation Assay according to the manufacturer’s instructions. Briefly, 5 × 10^4 of HL60 or U937 cells per well were treated with DMSO stocks of the respective inhibitors or with DMSO in 100 µL cell culture medium and incubated for 72 h at 37 °C and 5% CO2 in transparent 96-well microtiter plates (PAA). Subsequently, 20 µL of the detection reagent (containing a tetrazolium salt) was added to each well and incubated for 4 more hours under the same conditions. After this time, absorption was measured at a wavelength of 490 nm (BMG Polarstar, BMG Labtech, Ortenberg, Germany).

Broadly, the GI50 is the concentration at which growth is held to half of that of the control. The term IC50 denotes the midpoint of a concentration-inhibition curve. In the case of `CC(C)NC(=O)ONC(=O)CCCCCCC(=O)Nc1ccccc1` [Compound 2a, [(8-Anilino-8-oxo-octanoyl)amino]N-isopropylcarbamate], the “Release of SAHA (%)” value in data set [1] came to 2.2%. Also, the results for the GI50 in the data set with U937 cells and in the data set on HL60 cells were 0.49 ± 0.09 µM and 1.02 ± 0.09 µM, respectively. The “IC50 (µM) ± SE HDAC1” value at recombinant human HDAC1 is “low micromolar range”. For the same compound, the IC50 was found to be 1.52 ± 0.02 µM on recombinant human HDAC1 and 5.3 ± 0.59 µM in data set [2].

For `O=C(CCCCCCC(=O)Nc1ccccc1)NOC(=O)NCc1ccccc1` [Compound 2b, [(8-Anilino-8-oxo-octanoyl)amino]N-benzylcarbamate], the “Release of SAHA (%)” value in data set [1] turned out to be 0.5%. For the same compound, the results for the 50% growth inhibitory concentration (GI50) with U937 cells and in the data set on HL60 cells were 0.68 ± 0.09 µM and 1.06 ± 0.11 µM, respectively. In addition, the IC50 turned out to be 0.74 ± 0.01 µM at recombinant human HDAC1 and 3.02 ± 0.03 µM in data set [2].

On to `CCNC(=O)ONC(=O)CCCCCCC(=O)Nc1ccccc1` [Compound 2c, [(8-Anilino-8-oxo-octanoyl)amino]N-ethylcarbamate], for which the “Release of SAHA (%)” value in data set [1] was determined as 14.5%. In addition, the concentration for 50% growth inhibition (GI50) with U937 cells was 0.88 ± 0.13 µM; in the data set on HL60 cells, 0.99 ± 0.17 µM. The IC50 on recombinant human HDAC1 stood at 0.79 ± 0.01 µM; in data set [2] it was 2.07 ± 0.04 µM.

With `O=C(CCCCCCC(=O)Nc1ccccc1)NOC(=O)Nc1ccccc1` [Compound 2d, [(8-Anilino-8-oxo-octanoyl)amino]N-phenylcarbamate], the “Release of SAHA (%)” value in data set [1] was determined as 4.6%. The GI50 in the data set with U937 cells worked out at 0.42 ± 0.13 µM; in the data set on HL60 cells, 0.58 ± 0.05 µM. In addition, the IC50 at recombinant human HDAC1 was 0.132 ± 0.001 µM; in data set [2], 0.71 ± 0.002 µM.
